Reference: patent US20250288536A1, “PROTEIN PARTICLES INCLUDING AN ACTIVE AGENT AND METHODS OF MAKING AND USING THE SAME” (Dairy Mangement Inc., priority 2022, published 2025)
Where two headings read alike, the source gives them in different places.

Experiments:
[1] = Particle size by DLS before and after ultrasonication (Example 2); conditions: after ultrasonication
[2] = Scanning electron microscopy (SEM) particle size; conditions: 1 mg/mL dispersion

## N[C@@H](Cc1c[nH]c2ccccc12)C(=O)O [Trp, tryptophan]
0.01 mg/mL
  change of antioxidant activity (ABTS) with HPH treatment: increased
Concentration above 0.1 mg/mL
  ABTS radical scavenging activity: around 100%
[1]
  colloidal dispersion stability when adjusting pH to 7: remained stable

## α-lactalbumin
[2]; HPH sample
  particle size by SEM (dry state): ~80 nm
[2]; NOHPH sample
  particle size by SEM (dry state): ~40 nm
After vs before HPH
  change of antioxidant activity (ABTS) with HPH treatment: increased
Concentration of 0.5 mg/mL
  ABTS radical scavenging activity: 20%
